# According to ChEMBL document CHEMBL5550169, “A consensus reverse docking approach for identification of a competitive inhibitor of acetyltransferase enhanced intracellular survival protein from Mycobacterium tuberculosis” (Bioorg Med Chem, 2024):
# Experiments:
# Type in all cases: functional
# [1] = test system: Mycobacterium tuberculosis; assay: Antibacterial activity against Mycobacterium tuberculosis H37Ra measured after 7 days by resazurin reduction microplate assay; conditions: 168 h, time 7 day
# [2] = test system: Mycobacterium tuberculosis; assay: Antibacterial activity against Mycobacterium tuberculosis H37Rv assessed as reduction in pellet formation measured after 7 to 14 days by alamar blue assay; conditions: time 7-14 day
# [3] = test system: Mycobacterium tuberculosis; assay: Antibacterial activity against Mycobacterium tuberculosis IAR2 assessed as reduction in pellet formation measured after 7 to 14 days by alamar blue assay; conditions: time 7-14 day
SMILES,MIC [1] [µM],further results
CC[C@@H](CO)NCCN[C@@H](CC)CO [ETHAMBUTOL],8,–
O=C(CSc1nc2sc3c(c2c(=O)n1-c1ccccc1)CCCC3)c1ccc(Cl)cc1,> 200,–
N#C/C(=C\c1c[nH]c2ccccc12)C(=O)N1CCSCC1,> 200,–
O=C(CSc1nc2sc3c(c2c(=O)n1Cc1ccccc1)CCCC3)c1cccc(O)c1,200,–
O=C(CSc1nc2sc3c(c2c(=O)n1-c1ccccc1)CCCC3)c1ccc(Cl)c(Cl)c1,> 200,–
COc1ccc(C(=O)CSc2nc3sc4c(c3c(=O)n2-c2ccccc2)CCCC4)cc1,> 200,–
CCOC(=O)/C(C#N)=C/c1c[nH]c2ccccc12,> 200,–
N#C/C(=C\c1c[nH]c2ccccc12)C(=O)N1CCOCC1,> 200,–
CCCCOC(=O)/C(C#N)=C/c1c[nH]c2ccccc12,> 200,–
C=CCn1c(SCC(=O)c2ccc(OC)cc2)nc2ccccc2c1=N,> 200,–
COC(=O)/C(C#N)=C/c1c[nH]c2ccccc12,> 200,–
N#C/C(=C\c1c[nH]c2ccccc12)C(=O)NCc1ccccc1,> 200,–
C=CCn1c(SCC(=O)c2ccccc2)nc2sc3c(c2c1=O)CCCC3,> 200,–
N#C/C(=C\c1c[nH]c2ccccc12)C(=O)NCCc1ccccc1,> 200,–
Cc1cc(C)c2c(C(=O)NC3CCCCC3)c[nH]c2c1,–,MIC [2]: 4 ng/mL; MIC [3]: ≥ 250 ng/mL
Cc1ccc2[nH]cc(/C=C(\C#N)C(=O)NCCCc3ccccc3)c2c1,> 200,–
N#C/C(=C\c1c[nH]c2ccccc12)C(=O)Nc1ccccc1,> 200,–
C=CCn1c(SCC(=O)c2ccc(Cl)cc2)nc2ccccc2c1=N,> 200,–
C=CCn1c(SCC(=O)c2ccccc2)nc2ccccc2c1=N,200,–
Cc1ccc(C(=O)CSc2nc3sc4c(c3c(=O)n2Cc2ccccc2)CCCC4)cc1,> 200,–
C=CCn1c(SCC(=O)c2ccc(Cl)cc2)nc2sc3c(c2c1=O)CCCC3,> 200,–
O=C(CSc1nc2sc3c(c2c(=O)n1Cc1ccccc1)CCCC3)c1cccc(Cl)c1,> 200,–
